According to patent US5455241A, “Polycyclic compounds and processes for the preparation thereof” (Ciba-Geigy Corporation, priority 1993, dated 1995):
Where two headings read alike, the source gives them in different places.

Key:
Stability in solution = type: physicochemical
[1] = tested on: human bladder tumours T24; assay: Anti-tumour activity in vivo, s.c. transplanted human bladder tumours T24 in hairless mice; parameters: species or system human tumour in female Balb/c hairless mice; conditions: 15 days
Description: Female Balb/c hairless mice with s.c. transplanted human bladder tumours T24 are used to determine the anti-tumour activity. With the animals under peroral forene narcosis, approximately 25 mg of a solid tumour are placed under the skin on "the animals' left flank on day 0 and the small incised wound is closed by means of suture clips. On day 6 after the transplantation, the mice are divided at random into groups of 6 animals and treatment commences. The treatment is carried out for 15 days with peroral or intraperitoneal administration once daily of a compound of formula I in dimethyl sulfoxide/Tween 80/sodium chloride solution in the various doses. The tumours are measured twice a week with a slide gauge and the volume of the tumours is calculated. In this test, the peroral or intraperitoneal administration of 3 mg/kg daily of a compound of formula I brings about a reduction in the average tumour volume to from 10 to 15% of the tumour volume in the untreated control animals.
Example 10: Anti-tumour activity of N-[0-(tetrahydropyran-4-yl)-D-lactoyl]-staurosporin in vivo:
The substance is formulated as follows: 12.5 mg of active ingredient are dissolved in 0.25 ml of dimethyl sulfoxide and mixed with 50 μof Tween 80.4.7 ml of a 0.9% sodium chloride solution are then added and the whole is mixed thoroughly.
Female Balb/c hairless mice with s.c. transplanted human bladder tumours T24 are used to determine the anti-tumour activity. With the animals under peroral forene narcosis, approximately 25 mg of a solid tumour are placed under the skin on the animals' left flank on day 0 and the small incised wound is closed by means of suture clips. On day 6 after the transplantation, the mice are divided at random into groups of 6 animals and treatment commences. The treatment is carried out for 15 days with the administration once daily of the various doses. The tumours are measured twice a week with a slide gauge and the volume of the tumours is calculated. The results are compiled in the following Table in which "dose" is the daily dose, "admin." is the mode of administration, "exper." is experiment and "T/C %" is the percentage quotient of the values in the treated mice and the untreated control mice.

[2] = Determination of the maximum tolerated dose (MTD); conditions: mouse, in vivo, 3 female Balb/c mice per dose, within 7 days
Description: Example 11: Determination of the maximum tolerated dose (MTD) of N-[0-(tetrahydro-pyran-4-yl) -D-lactoyl]- staurosporin
3 female Balb/c mice per dose are treated i.p. or p.o. with N-[O]-(tetrahydropyran-4-yl)-D-lactoyl]-staurosporin in dimethyl sulfoxide […]/sodium chloride solution (see Example 10 for formulation). The dose is increased until animals succumb within 7 days.

CO[C@@H]1[C@H](N(C)C(=O)COC2CCOCC2)C[C@H]2O[C@]1(C)n1c3ccccc3c3c4c(c5c6ccccc6n2c5c31)C(=O)NC4O (stereo partly shown) [Example 7, N-[2-(tetrahydropyran-4-yl-oxy)-acetyl]-7-hydroxy-staurospo]
stability in solution (Stability in solution): unstable in solution

CO[C@@H]1[C@H](N(C)C(=O)[C@@H](C)OC2CCOCC2)C[C@H]2O[C@]1(C)n1c3ccccc3c3c4c(c5c6ccccc6n2c5c31)C(=O)NC4 [N-[O-(tetrahydropyran-4-yl)-D-lactoyl]-staurosporin]
average tumour volume [T/C %] ([1]; 0.19 mg/kg daily i.p., Exper. 2): 74% | average tumour volume [T/C %] ([1]; 0.38 mg/kg daily i.p., Exper. 2): 62% | average tumour volume [T/C %] ([1]; 0.75 mg/kg daily i.p., Exper. 2): 32% | average tumour volume [T/C %] ([1]; 0.78 mg/kg daily p.o., Exper. 2): 58% | average tumour volume [T/C %] ([1]; 1.50 mg/kg daily i.p., Exper. 1): 14% | average tumour volume [T/C %] ([1]; 1.50 mg/kg daily i.p., Exper. 2): 19% | average tumour volume [T/C %] ([1]; 1.56 mg/kg daily p.o., Exper. 2): 31% | average tumour volume [T/C %] ([1]; 3.00 mg/kg daily i.p., Exper. 1): 9% | average tumour volume [T/C %] ([1]; 3.00 mg/kg daily i.p., Exper. 2): 11% | average tumour volume [T/C %] ([1]; 3.13 mg/kg daily p.o., Exper. 1): 17% | average tumour volume [T/C %] ([1]; 3.13 mg/kg daily p.o., Exper. 2): 14% | average tumour volume [T/C %] ([1]; 6.25 mg/kg daily p.o., Exper. 1): 15% | average tumour volume [T/C %] ([1]; 6.25 mg/kg daily p.o., Exper. 2): 12% | MTD at 168 h ([2]; ip, read-out: MTD (i.p.)): 31.2 mg/kg | MTD at 168 h ([2]; po, read-out: MTD (p.o.)): 62.5 mg/kg
